# From ChEMBL document CHEMBL1268824, “Synthesis and SAR studies of 1,4-benzoxazine MenB inhibitors: novel antibacterial agents against Mycobacterium tuberculosis” (Bioorg Med Chem Lett, 2010)
# Activity calls are given as the source filed them. The calls are words filed in the database; no cut-off is given here.
# Columns and labels:
# [1] = biological target: T1, 1,4-dihydroxy-2-naphthoyl-CoA synthase (Mycobacterium tuberculosis, UniProt P9WNP5); assay: Non-competitive inhibition of Mycobacterium tuberculosis MenB expressed in Escherichia coli BL21 (DE3)
# T1 sequence (P9WNP5 whole entry): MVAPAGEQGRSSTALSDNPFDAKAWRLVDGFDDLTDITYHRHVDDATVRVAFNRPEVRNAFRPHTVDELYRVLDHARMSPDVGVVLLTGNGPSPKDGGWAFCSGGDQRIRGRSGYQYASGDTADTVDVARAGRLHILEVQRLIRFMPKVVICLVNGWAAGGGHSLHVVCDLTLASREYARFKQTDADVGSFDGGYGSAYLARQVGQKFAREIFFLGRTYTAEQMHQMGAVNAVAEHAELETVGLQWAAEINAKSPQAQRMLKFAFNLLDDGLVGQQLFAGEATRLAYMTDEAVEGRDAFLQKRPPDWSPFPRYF
# [2] = biological target: T1, 1,4-dihydroxy-2-naphthoyl-CoA synthase; assay: Non-competitive inhibition of Mycobacterium tuberculosis MenB expressed in Escherichia coli BL21 (DE3) assessed as inhibition of enzyme-substrate complex formation
# [3] = system: Mycobacterium tuberculosis; assay: Antibacterial activity against Mycobacterium tuberculosis H37Rv after 5 to 7 days by alamar blue assay; type: functional
# [4] = biological target: T1, 1,4-dihydroxy-2-naphthoyl-CoA synthase; assay: Inhibition of Mycobacterium tuberculosis MenB expressed in Escherichia coli BL21 (DE3) by double-reciprocal plot analysis
# Staphylococcus aureus = assay: Antibacterial activity against Staphylococcus aureus P209 assessed as bacterial growth inhibition; type: functional, organism-based
# Escherichia coli [5] = assay: Antibacterial activity against Escherichia coli M17 assessed as bacterial growth inhibition; type: functional, organism-based
# [6] = biological target: T2, 1,4-dihydroxy-2-naphthoyl-CoA synthase (Mycobacterium tuberculosis) (UniProt P9WNP5); assay: Inhibition of Mycobacterium tuberculosis MenB expressed in Escherichia coli BL21 (DE3) up to 100 uM by double-reciprocal plot analysis
# T2 sequence (whole entry): T1 sequence (P9WNP5 whole entry)
# [7] = biological target: T2, 1,4-dihydroxy-2-naphthoyl-CoA synthase (Mycobacterium tuberculosis); assay: Inhibition of Mycobacterium tuberculosis MenB expressed in Escherichia coli BL21 (DE3) at 125 ug/ml by double-reciprocal plot analysis
# Escherichia coli [8] = assay: Inhibition of Escherichia coli MenE expressed in Escherichia coli BL21 (DE3) at 50 uM by double-reciprocal plot analysis
# Mycobacterium avium = assay: Antibacterial activity against Mycobacterium avium; type: functional
compound,measurement,setting,value
COC(=O)/C=C1\Nc2cc(Cl)ccc2OC1=O,Ki,[1],22.5 µM
same,Ki,[2],18.5 µM
same,MIC,[3],5 µg/mL
same,IC50,[4],46.3 µM
Cc1ccc2c(c1)N/C(=C\C(=O)c1ccccc1Cl)C(=O)O2,growth inhibition (GI),Staphylococcus aureus,Active
same,MIC,[3],100 µg/mL
same,growth inhibition (GI),Escherichia coli [5],Active
same,inhibition,[6],inactive
COC(=O)/C=C1\Nc2ccc([N+](=O)[O-])cc2OC1=O,MIC,[3],> 100 µg/mL
same,IC50,[4],20.3 µM
O=C1Oc2ccc(Cl)cc2N/C1=C\C(=O)c1ccccc1Cl,growth inhibition (GI),Staphylococcus aureus,Active
same,MIC,[3],12.5 µg/mL
same,growth inhibition (GI),Escherichia coli [5],Active
same,inhibition,[6],inactive
COC(=O)/C=C1\Nc2cc(C)ccc2OC1=O,MIC,[3],> 100 µg/mL
same,IC50,[4],23.1 µM
COC(=O)/C=C1\Nc2ccccc2OC1=O,Ki,[1],9.1 µM
same,Ki,[2],67 µM
same,MIC,[3],0.64 µg/mL
same,IC50,[4],10 µM
COC(=O)/C=C1\Nc2ccc(C)cc2OC1=O,MIC,[3],100 µg/mL
same,IC50,[4],18.2 µM
O=C1Oc2ccccc2N/C1=C\C(=O)c1ccccc1Cl,growth inhibition (GI),Staphylococcus aureus,Active
same,MIC,[3],3.13 µg/mL
same,growth inhibition (GI),Escherichia coli [5],Active
same,inhibition,[6],inactive
COC(=O)/C=C1\Nc2c(C)cccc2OC1=O,MIC,[3],25 µg/mL
same,IC50,[4],24.1 µM
COC(=O)/C=C1\Nc2cc([N+](=O)[O-])ccc2OC1=O,MIC,[3],50 µg/mL
same,IC50,[4],28.2 µM
CCS(=O)(=O)c1ccc2c(c1)N/C(=C\C(=O)OC)C(=O)O2,MIC,[3],> 100 µg/mL
same,IC50,[4],17.9 µM
Cc1ccc2c(c1)N/C(=C\C(=O)CC(C)C)C(=O)O2,inhibition,[7],77.3%
same,inhibition,Escherichia coli [8],inactive
COC(=O)/C=C1\Nc2ccc(F)cc2OC1=O,MIC,[3],0.63 µg/mL
same,IC50,[4],30 µM
O=C1Oc2cc(F)ccc2N/C1=C\C(=O)c1ccccc1Cl,growth inhibition (GI),Staphylococcus aureus,Active
same,MIC,[3],1.56 µg/mL
same,growth inhibition (GI),Escherichia coli [5],Active
same,inhibition,[6],inactive
COC(=O)/C=C1\Nc2ccccc2SC1=O,MIC,[3],> 100 µg/mL
same,Activity,Mycobacterium avium,>64 µg/mL
same,IC50,[4],> 140 µM
COC(=O)/C=C1\Nc2ccc(Cl)cc2OC1=O,MIC,[3],0.63 µg/mL
same,IC50,[4],35.7 µM
CCS(=O)(=O)c1ccc2c(c1)N/C(=C\C(=O)C(C)(C)C)C(=O)O2,inhibition,[7],60.3%
same,inhibition,Escherichia coli [8],inactive
CC(C)(C)/C(O)=C/c1nc2ccccc2oc1=O,inhibition,[7],68.4%
same,inhibition,Escherichia coli [8],inactive
COC(=O)/C=C1\Nc2ccccc2NC1=O,MIC,[3],> 100 µg/mL
same,Activity,Mycobacterium avium,>64 µg/mL
same,IC50,[4],> 122 µM
CC(C)CC(=O)/C=C1\Nc2cc(Cl)ccc2OC1=O,inhibition,[7],98%
same,inhibition,Escherichia coli [8],inactive
Cc1ccc2c(c1)OC(=O)/C(=C/C(=O)c1ccccc1Cl)N2,growth inhibition (GI),Staphylococcus aureus,Active
same,MIC,[3],> 100 µg/mL
same,growth inhibition (GI),Escherichia coli [5],Active
same,inhibition,[6],inactive
COC(=O)/C=C1\Nc2cc(F)ccc2OC1=O,Ki,[1],11.5 µM
same,Ki,[2],10.1 µM
same,MIC,[3],0.63 µg/mL
same,IC50,[4],27 µM
O=C1Oc2ccc(F)cc2N/C1=C\C(=O)c1ccccc1Cl,growth inhibition (GI),Staphylococcus aureus,Active
same,MIC,[3],3.13 µg/mL
same,growth inhibition (GI),Escherichia coli [5],Active
same,inhibition,[6],inactive
O=C1Oc2cc(Cl)ccc2N/C1=C\C(=O)c1ccccc1Cl,growth inhibition (GI),Staphylococcus aureus,Active
same,MIC,[3],3.13 µg/mL
same,growth inhibition (GI),Escherichia coli [5],Active
same,inhibition,[6],inactive
